Tests used:
SARS-CoV-2 [1] = test: (§1) Antiviral activity against SARS-CoV-2 20SF107 infected in HPAEpiC cells assessed as inhibition of viral replication pretreated with compound and subsequent introduction of viral infection for 1 hr followed by inoculum removal and compound washout and further treatment with compound for 48 hrs by RT-qPCR analysis; assay type: functional, organism-based; conditions: for EC50: Severe acute respiratory syndrome coronavirus 2, 20SF107, HPAEpiC
SARS-CoV-2 [2] = test: as §1, with “Omicron BA.5” for “20SF107”; assay type: functional, organism-based; conditions: Severe acute respiratory syndrome coronavirus 2, Omicron BA.5, HPAEpiC

| SMILES | EC50 (SARS-CoV-2 [1]) [nM] | inhibition (SARS-CoV-2 [1]; Severe acute respiratory syndrome coronavirus 2, time 49.0 hrs) | EC50 (SARS-CoV-2 [2]) [nM] |
| --- | --- | --- | --- |
| CNc1nc(N)nc2c1ncn2[C@@H]1O[C@H](CO[P@@](=O)(N[C@@H](C)C(=O)OC(C)C)Oc2ccccc2)[C@@H](O)[C@]1(F)CF.O=S(=O)(O)O | 560 | Dose-dependent-effect | 960 |
| CCC(CC)COC(=O)[C@H](C)N[P@](=O)(OC[C@H]1O[C@@](C#N)(c2ccc3c(N)ncnn23)[C@H](O)[C@@H]1O)Oc1ccccc1 [REMDESIVIR] | 910 | – | – |
